Values quoted from earlier work as cited in patent US20250041318A1, “STERILANTS COMPOSITION, KITS AND METHODS OF USE THEREOF” (priority 2021, published 2025).
Where two headings read alike, the source gives them in different places.

What was measured:
[1] = target: LDH from goat liver (LDH-A4)
[2] = target: LDH from goat heart (LDH-B4)
[3] = target: LDH from goat testis (LDH-C4)
[4] = system: LDH isozymes (LDH-A4, LDH-B4, LDH-C4)
[5] = system: pancreatic cancer; details: preclinical mouse model of pancreatic cancer
[6] = Lineweaver-Burk reciprocal plots

| Structure (SMILES) | Ki ([1]; read-out: Ki against NAD) | Ki ([1]; read-out: Ki against NADH) | Ki ([1]; read-out: Ki against lactate) | Ki ([1]; read-out: Ki against pyruvate) | Ki ([2]; read-out: Ki against NAD) | Ki ([2]; read-out: Ki against NADH) | Ki ([2]; read-out: Ki against lactate) | Ki ([2]; read-out: Ki against pyruvate) | Ki ([3]; read-out: Ki against NAD) | Ki ([3]; read-out: Ki against NADH) | Ki ([3]; read-out: Ki against lactate) | Ki ([3]; read-out: Ki against pyruvate) | IC50 ([4]; 3.3 mM lactic acid and 1.8 mM NAD at 25 degrees C. and pH 9.0, read-out: IC50 for the lactate oxidation) | Manner of inhibition when NAD and NADH were varied as substrates [4, 6] | Manner of inhibition with respect to pyruvate and lactate [4, 6] | Efficacy compared with gemcitabine [5] |
| --- | --- | --- | --- | --- | --- | --- | --- | --- | --- | --- | --- | --- | --- | --- | --- | --- |
| Cc1cc2c(C(C)C)c(O)c(O)c(C=O)c2c(O)c1-c1c(C)cc2c(C(C)C)c(O)c(O)c(C=O)c2c1O [gossypol] | 94 µM | 33 µM | 85 µM | 20 µM | 108 µM | 43 µM | 85 µM | 34 µM | 83 µM | 45 µM | 125 µM | 29 µM | 125 µM | competitive | non-competitive |  |
| CC(C)[C@]12O[C@H]1[C@@H]1O[C@]13[C@]1(O[C@H]1C[C@H]1C4=C(CC[C@@]13C)C(=O)OC4)[C@@H]2OCOP(=O)(O)O [Minnelide] |  |  |  |  |  |  |  |  |  |  |  |  |  |  |  | even more effective than gemcitabine |
